Measurements reported in US20180273531A1, “PYRIMIDINE COMPOUND AND MEDICAL USE THEREOF” (Japan Tobacco Inc., priority 2004, published 2018).

How the values were obtained:
Assay type in all cases: cell-based
[1] = test system: colorectal cancer cell line HT-29 cells; assay: Growth inhibitory effect against cancer cell lines (3H-thymidine uptake), HT-29; conditions: test substance 18 hrs, then 3H-thymidine 6 hrs, triplicate
Experimental: (§1) Renal cancer cell line ACHN cell or colorectal cancer cell line HT-29 cells were cultured in a 96 well plate at 1.0×10^4 cells/90 μL/well for 24 hrs, then a test substance dissolved in DMSO (dimethyl sulfoxide) was added. After 18 hrs, ^3H-thymidine (0.25 μCi/well) was added and the cells were cultured for 6 hrs. Using a cell harvester, the cells were recovered on a UniFilter-96 GF/B glass filter and the ^3H radioactivity uptaken by the cells was measured by TopCount (Packard). As a control, DMSO was used and the activity of the test substance was expressed in the concentration (IC50) necessary for inhibiting ^3H radioactivity uptaken by the cell to 50% of that of the control group. The measurements were made in triplicate.

p15 protein = assay: Evaluation of p15 induction activity (Western blotting); conditions: test substance 0.1 μM, 24 hrs, ACHN cells or HT-29 cells, compared to DMSO, n=2
Experimental: (§2) ACHN cells or HT-29 cells were cultured in a 6 well plate at 2.5×10^5 cells/1.8 mL/well for 24 hrs, then a test substance (0.1 μM) dissolved in DMSO was added. After 24 hrs, cells were detached using trypsin-EDTA (ethylene diamine tetraacetic acid) and solubilized with NuPAGE LDS sample buffer (Invitrogen). Using an RC DC protein assay kit (BIO-RAD), the protein concentration of the sample was quantitated, and a sample in an amount corresponding to 10 μg of BSA (bovine serum albumin) was analyzed by Western blotting using an anti-p15 antibody. The density of the band stained with the anti-p15 antibody was measured by a densitometer to quantify the amount of p15 protein. As a control, DMSO was used and the test was performed with n=2 and the average protein amount was determined.

[2] = test system: Renal cancer cell line ACHN cell; assay: Growth inhibitory effect against cancer cell lines (3H-thymidine uptake), ACHN
Experimental: as §1

p27 protein = p27 protein induction test (Western blotting); conditions: test substance (0.1 1M), 24 hrs, ACHN cells or HT-29 cells, compared to DMSO, n=2
Experimental: as §2, with “hrs,” for “hrs, then”, “[…])” for “μM)”, “anti-p27” for “anti-p15”, “p27” for “p15”

[3] = Homo sapiens, HT-29, inhibition of 3H-thymidine uptake

Row | IC50 [1, 3] | IC50 ([2]; Homo sapiens, ACHN) | IC50 ([1]; inhibition of 3H-thymidine uptake) | IC50 ([2]; inhibition of 3H-thymidine uptake, test substance 18 hrs, then 3H-thymidine 6 hrs, triplicate) | Compound | fold induction at 0.1 µM (p15 protein) | fold induction at 0.1 µM (p27 protein) | Induction of p15 protein (p15 protein)
1 | 10 to 100 nM | 100 to 1000 nM | – | – | Cn1c(=O)cc(Nc2ccc(Br)cc2F)c2c(=O)n(C3CC3)c(=O)n(-c3ccc(O)cc3)c21 [Example 1-188] | ≥ 1.5 | – | –
2 | 100 to 1000 nM | – | – | – | COc1ccc(Nc2cc(=O)n(C)c3c2c(=O)n(C2CC2)c(=O)n3-c2ccccc2)c(F)c1 [Example 1-175] | ≥ 1.5 | ≥ 1.5 | –
3 | < 10 nM | 100 to 1000 nM | – | – | CN(C)c1ccc(Nc2cc(=O)n(C)c3c2c(=O)n(C2CC2)c(=O)n3-c2cccc(N3CCOCC3)c2)c(F)c1 [Example 1-205] | ≥ 1.5 | – | –
4 | < 10 nM | 100 to 1000 nM | – | – | Cn1c(=O)cc(Nc2ccc(Br)cc2F)c2c(=O)n(C3CC3)c(=O)n(-c3cccc(N4CCOCC4)c3)c21 [Example 1-193] | ≥ 1.5 | – | –
5 | 10 to 100 nM | 100 to 1000 nM | – | – | CN(C)c1cccc(-n2c(=O)n(C3CC3)c(=O)c3c(Nc4ccc(Br)cc4F)cc(=O)n(C)c32)c1 [Example 1-199] | ≥ 1.5 | – | –
6 | < 10 nM | 10 to 100 nM | – | – | Cc1c(Nc2ccc(Br)cc2F)c2c(=O)n(C3CC3)c(=O)n(-c3cccc(NS(C)(=O)=O)c3)c2n(C)c1=O [Example 1-333] | ≥ 1.5 | – | –
7 | 10 to 100 nM | – | – | – | COc1ccc(-n2c(=O)n(C3CC3)c(=O)c3c(Nc4ccc(Br)cc4F)cc(=O)n(C)c32)cc1 [Example 1-186] | ≥ 1.5 | ≥ 1.5 | –
8 | 10 to 100 nM | 100 to 1000 nM | – | – | Cn1c(=O)cc(Nc2ccc(Br)cc2Cl)c2c(=O)n(C3CC3)c(=O)n(-c3ccccc3)c21 [Example 1-176] | ≥ 1.5 | – | –
9 | < 10 nM | 100 to 1000 nM | – | – | Cn1c(=O)cc(Nc2ccc(Br)cc2F)c2c(=O)n(C3CC3)c(=O)n(-c3cccc(N4CCCC4=O)c3)c21 [Example 1-212] | ≥ 1.5 | – | –
10 | 10 to 100 nM | 100 to 1000 nM | – | – | Cc1c(=O)n(C)c(Nc2ccc(I)cc2F)c2c(=O)n(C3CC3)c(=O)n(-c3cccc(NS(=O)(=O)N(CCO)C(=O)NCCO)c3)c12 [Example 4-96] | – | – | –
11 | – | – | – | – | CC(C)N1CCC(Nc2cc(=O)n(C)c3c2c(=O)n(C2CC2)c(=O)n3-c2ccccc2)CC1 [Example 1-182] | – | ≥ 1.5 | –
12 | 100 to 1000 nM | 100 to 1000 nM | – | – | Cn1c(=O)cc(Nc2ccc(Br)cc2)c2c(=O)n(C3CC3)c(=O)n(-c3ccccc3F)c21 [Example 1-113] | ≥ 1.5 | – | –
13 | – | – | < 10 nM | 100 to 1000 nM | Cc1c(=O)n(C)c(Nc2ccc(I)cc2F)c2c(=O)n(C3CC3)c(=O)n(-c3ccc4c(c3)ncn4C)c12 [Example 4-112] | – | – | + (As compared to DMSO, not less than 1.5-fold induction of p15 protein)
14 | 10 to 100 nM | 100 to 1000 nM | – | – | Cc1c(=O)n(C)c(Nc2ccc(I)cc2F)c2c(=O)n(C3CC3)c(=O)n(-c3ccc4c(c3)ncn4C)c12 [Example 4-111] | ≥ 1.5 | – | –
15 | < 10 nM | 10 to 100 nM | – | – | C#Cc1ccc(Nc2cc(=O)n(C)c3c2c(=O)n(C2CC2)c(=O)n3-c2ccccc2)c(F)c1 [Example 1-208] | ≥ 1.5 | – | –
16 | 10 to 100 nM | 100 to 1000 nM | – | – | Cn1c(=O)cc(Nc2ccc(Br)cc2)c2c(=O)n(C3CC3)c(=O)n(-c3cccc(NS(C)(=O)=O)c3)c21 [Example 1-304] | – | – | –
17 | 10 to 100 nM | 100 to 1000 nM | – | – | Cn1c(=O)cc(Nc2ccc(Br)cc2F)c2c(=O)n(C3CC3)c(=O)n(-c3cccc(NS(=O)(=O)CC(F)(F)F)c3)c21 [Example 1-267] | – | – | –
18 | 100 to 1000 nM | – | – | – | Cc1cc(N(C)C)ccc1Nc1cc(=O)n(C)c2c1c(=O)n(C1CC1)c(=O)n2-c1ccccc1F [Example 1-142] | ≥ 1.5 | ≥ 1.5 | –
19 | < 10 nM | 10 to 100 nM | – | – | CCn1c(=O)c2c(Nc3ccc(I)cc3F)n(C)c(=O)c(C)c2n(-c2cccc(NS(C)(=O)=O)c2)c1=O [Example 4-20] | – | – | –
20 | 100 to 1000 nM | 100 to 1000 nM | – | – | CC#Cc1ccc(Nc2c3c(=O)n(C4CC4)c(=O)n(-c4cccc(NC(C)=O)c4)c3c(C)c(=O)n2C)c(F)c1 [Example 4-52] | – | – | –
21 | < 10 nM | 10 to 100 nM | – | – | C#Cc1ccc(Nc2c3c(=O)n(CC)c(=O)n(-c4cccc(NS(C)(=O)=O)c4)c3c(C)c(=O)n2C)c(F)c1 [Example 4-42] | – | – | –

Row | IC50 [1, 3] | IC50 ([2]; Homo sapiens, ACHN) | IC50 ([1]; inhibition of 3H-thymidine uptake) | IC50 ([2]; inhibition of 3H-thymidine uptake, test substance 18 hrs, then 3H-thymidine 6 hrs, triplicate) | Compound | fold induction at 0.1 µM (p15 protein) | fold induction at 0.1 µM (p27 protein) | Induction of p15 protein (p15 protein)
22 | 10 to 100 nM | – | – | – | CN(C)CCOc1cccc(-n2c(=O)n(C3CC3)c(=O)c3c(Nc4ccc(Br)cc4F)cc(=O)n(C)c32)c1 [Example 1-218] | ≥ 1.5 | ≥ 1.5 | –
23 | 10 to 100 nM | 100 to 1000 nM | – | – | CN(C)CC#Cc1ccc(Nc2cc(=O)n(C)c3c2c(=O)n(C2CC2)c(=O)n3-c2ccccc2)c(F)c1 [Example 1-246] | ≥ 1.5 | – | –
24 | 10 to 100 nM | 100 to 1000 nM | – | – | Cc1c(=O)n(C)c(Nc2ccc(I)cc2F)c2c(=O)n(C3CC3)c(=O)n(-c3ccc(CC(=O)O)cc3)c12 [Example 4-94] | – | – | –
25 | 10 to 100 nM | 100 to 1000 nM | – | – | CCOC(=O)Nc1cccc(-n2c(=O)n(C3CC3)c(=O)c3c(Nc4ccc(Br)cc4F)cc(=O)n(C)c32)c1 [Example 1-308] | – | – | –
26 | 10 to 100 nM | 100 to 1000 nM | – | – | Cn1c(=O)cc(Nc2ccc(Br)cc2F)c2c(=O)n(C3CC3)c(=O)n(-c3cccc(S(C)(=O)=O)c3)c21 [Example 1-223] | ≥ 1.5 | – | –
27 | < 10 nM | 10 to 100 nM | – | – | Cn1c(=O)cc(Nc2ccc(I)cc2F)c2c(=O)n(C3CC3)c(=O)n(-c3ccccc3)c21 [Example 1-207] | ≥ 1.5 | – | –
28 | 10 to 100 nM | 100 to 1000 nM | – | – | CN(C)c1ccc(Nc2cc(=O)n(C)c3c2c(=O)n(C2CC2)c(=O)n3-c2ccccc2)c(F)c1 [Example 1-192] | ≥ 1.5 | – | –
29 | < 10 nM | < 10 nM | – | – | Cc1c(=O)n(C)c(Nc2ccc(I)cc2F)c2c(=O)n(C3CC3)c(=O)n(-c3cccc(NS(=O)(=O)N4CCOCC4)c3)c12 [Example 4-34] | – | – | –
30 | 10 to 100 nM | 100 to 1000 nM | – | – | Cn1c(=O)cc(Nc2ccc(Br)cc2F)c2c(=O)n(C3CC3)c(=O)n(-c3cccc(O)c3)c21 [Example 1-213] | ≥ 1.5 | – | –
31 | 10 to 100 nM | 100 to 1000 nM | – | – | Cn1c(=O)cc(Nc2ccc(Br)cc2F)c2c(=O)n(C3CC3)c(=O)n(-c3cccc(C(N)=O)c3)c21 [Example 1-270] | – | – | –
32 | 10 to 100 nM | 100 to 1000 nM | – | – | CCC(=O)Nc1cccc(-n2c(=O)n(C3CC3)c(=O)c3c(Nc4ccc(Br)cc4F)cc(=O)n(C)c32)c1 [Example 1-278] | – | – | –
33 | 10 to 100 nM | 100 to 1000 nM | – | – | Cn1c(=O)c2c(Nc3ccc(Br)cc3Cl)cc(=O)n(C)c2n(-c2ccccc2)c1=O [Example 1-200] | ≥ 1.5 | – | –
34 | < 10 nM | 10 to 100 nM | – | – | C#Cc1ccc(Nc2cc(=O)n(C)c3c2c(=O)n(C2CC2)c(=O)n3-c2cccc(NS(=O)(=O)C(C)C)c2)c(F)c1 [Example 1-321] | ≥ 1.5 | – | –
35 | 10 to 100 nM | 10 to 100 nM | – | – | CCc1ccc(Nc2c3c(=O)n(CC)c(=O)n(-c4cccc(NS(=O)(=O)CC)c4)c3c(C)c(=O)n2C)c(F)c1 [Example 4-41] | – | – | –
36 | 10 to 100 nM | 100 to 1000 nM | – | – | Cc1c(=O)n(C)c(Nc2ccc(I)cc2F)c2c(=O)n(C3CC3)c(=O)n(-c3cccc(NC(=O)c4cccn4C)c3)c12 [Example 4-87] | – | – | –
37 | < 10 nM | < 10 nM | – | – | Cc1c(=O)n(C)c(Nc2ccc(I)cc2F)c2c(=O)n(C3CC3)c(=O)n(-c3cccc(NS(=O)(=O)N(C)C)c3)c12 [Example 4-33] | – | – | –
38 | 100 to 1000 nM | 100 to 1000 nM | – | – | Cc1ccccc1-n1c(=O)n(C2CC2)c(=O)c2c(Nc3ccc(N(C)C)cc3)cc(=O)n(C)c21 [Example 1-106] | ≥ 1.5 | – | –
39 | 10 to 100 nM | 100 to 1000 nM | – | – | COc1cccc(-n2c(=O)n(C3CC3)c(=O)c3c(Nc4ccc(Br)cc4F)cc(=O)n(C)c32)c1 [Example 1-191] | ≥ 1.5 | – | –
40 | 10 to 100 nM | 100 to 1000 nM | – | – | CCCCC(=O)NCC(=O)Nc1cccc(-n2c(=O)n(C3CC3)c(=O)c3c(Nc4ccc(Br)cc4F)cc(=O)n(C)c32)c1 [Example 1-276] | – | – | –
41 | 10 to 100 nM | 100 to 1000 nM | – | – | C#Cc1ccc(Nc2c3c(=O)n(C4CC4)c(=O)n(-c4cccc(NC(C)=O)c4)c3c(C)c(=O)n2CC)c(F)c1 [Example 4-46] | – | – | –
